Patent publication US10793576B2, “Compound used as Bruton's tyrosine kinase inhibitor and preparation method and application thereof” (Chengdu Brilliant Pharmaceutical Co., LTD., priority 2017, dated 2020)

Target: BTK kinase (Homo sapiens (Human), UniProt Q06187)
Test: In vitro assay for the inhibition of BTK kinase activity (Mobility-Shift Assay)
Assay type: biochemical
Description: Mobility-Shift Assay, which is microfluidic chip technology, applies the basic concept of capillary electrophoresis to microfluidic environments. The substrate used for the experiment is a polypeptide with a fluorescent label. Under the action of enzyme in the reaction system, the substrate is transformed into a product, and the charge the substrate carries also changes accordingly. The use of the charge difference between the substrate and the product involved in Mobility-Shift Assay achieves the separating of the two, and they are tested respectively. The test results are expressed by conversion rates.
(3) 100% DMSO was added to the positive control well and the negative control well, respectively;

Chain of BTK kinase (Q06187 whole entry): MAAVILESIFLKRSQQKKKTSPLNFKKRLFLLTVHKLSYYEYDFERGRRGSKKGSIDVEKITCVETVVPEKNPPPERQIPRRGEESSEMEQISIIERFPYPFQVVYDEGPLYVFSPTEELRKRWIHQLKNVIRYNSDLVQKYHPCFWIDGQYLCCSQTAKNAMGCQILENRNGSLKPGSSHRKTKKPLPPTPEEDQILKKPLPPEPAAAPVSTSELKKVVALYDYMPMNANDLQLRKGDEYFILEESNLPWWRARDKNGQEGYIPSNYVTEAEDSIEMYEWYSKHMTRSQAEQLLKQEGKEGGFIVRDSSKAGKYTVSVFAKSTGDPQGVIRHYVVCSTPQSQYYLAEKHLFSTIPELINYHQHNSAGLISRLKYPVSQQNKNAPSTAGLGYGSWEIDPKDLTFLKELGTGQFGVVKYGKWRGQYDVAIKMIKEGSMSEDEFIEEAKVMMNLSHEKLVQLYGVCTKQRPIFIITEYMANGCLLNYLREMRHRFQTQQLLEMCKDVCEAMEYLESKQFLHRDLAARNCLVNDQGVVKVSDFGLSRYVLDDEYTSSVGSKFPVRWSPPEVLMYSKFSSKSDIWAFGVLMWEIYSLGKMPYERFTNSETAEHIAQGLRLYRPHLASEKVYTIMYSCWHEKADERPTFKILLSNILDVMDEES

Structure (SMILES)	IC50
C=CC(=O)N1C[C@@H]2C[C@]1(c1nc(-c3ccc(C(=O)Nc4ccccn4)cc3)c3c(N)nccn13)CCO2 [Example 7]	0.155 µM
CC#CC(=O)N1CC2C[C@H]1C(c1nc(-c3ccc(C(=O)Nc4ccccn4)cc3)c3c(N)nccn13)N2 (stereo partly drawn) [Example 21]	0.672 µM
C=CC(=O)N1C(c2nc(-c3ccc(C(=O)Nc4ccccn4)cc3)c3c(N)nccn23)CC2CC21 (stereo not drawn) [Example 24]	0.176 µM
CC#CC(=O)N1C(c2nc(-c3ccc(C(=O)Nc4ccccn4)cc3)c3c(N)nccn23)CC2CC21 (stereo not drawn) [Example 25]	0.342 µM
C=CC(=O)N1CCC2(CC1)CC(c1nc(-c3ccc(C(=O)Nc4ccccn4)cc3)c3c(N)nccn13)CO2 (stereo not drawn) [Example 26]	0.477 µM
CC#CC(=O)N1CCC2(CC1)CC(c1nc(-c3ccc(C(=O)Nc4ccccn4)cc3)c3c(N)nccn13)CO2 (stereo not drawn) [Example 27]	0.673 µM
C=CC(=O)NC12CC3CC(C1)CC(c1nc(-c4ccc(C(=O)Nc5ccccn5)cc4)c4c(N)nccn14)(C3)C2 [Example 28]	0.124 µM
CC#CC(=O)NC12CC3CC(C1)CC(c1nc(-c4ccc(C(=O)Nc5ccccn5)cc4)c4c(N)nccn14)(C3)C2 [Example 29]	0.216 µM
C=CC(=O)N1CCC2(CC2c2nc(-c3ccc(C(=O)Nc4ccccn4)cc3)c3c(N)nccn23)C1 (stereo not drawn) [Example 30]	0.724 µM
CC#CC(=O)N1CCC2CC21c1nc(-c2ccc(C(=O)Nc3ccccn3)cc2)c2c(N)nccn12 (stereo not drawn) [Example 33]	0.094 µM
CC#CC(=O)N1CC2CCC2(c2nc(-c3ccc(C(=O)Nc4ccccn4)cc3)c3c(N)nccn23)C1 (stereo not drawn) [Example 35]	0.067 µM
CC#CC(=O)N1CC2(CCNCC2)CC1c1nc(-c2ccc(C(=O)Nc3ccccn3)cc2)c2c(N)nccn12 (stereo not drawn) [Example 37]	0.046 µM
C=CC(=O)N1CC2COC[C@]2(c2nc(-c3ccc(C(=O)Nc4ccccn4)cc3)c3c(N)nccn23)C1 (stereo partly drawn) [Example 38]	0.066 µM
C=CC(=O)N1CC2(CC2)C[C@H]1c1nc(-c2ccc(C(=O)Nc3cc(C(F)(F)F)ccn3)cc2)c2c(N)nccn12 [Example 41, (S)-4-(3-(5-acryloyl-5-azaspiro[2.4]heptan-6-yl)-8-aminoimidazo[1,5-a]pyrazin-1-yl)-N-(4-(trifluoromethyl)pyridin-2-yl)benzamide]	0.052 µM
C=CC(=O)N1C(c2nc(-c3ccc(C(=O)Nc4cc(C(F)(F)F)ccn4)cc3)c3c(N)nccn23)CC2CC21 (stereo not drawn) [Example 50]	0.069 µM
CC#CC(=O)N1C2C[C@@H](C1c1nc(-c3ccc(C(=O)Nc4cc(C(F)(F)F)ccn4)cc3)c3c(N)nccn13)N(C(C)C)C2 (stereo partly drawn) [Example 57]	0.059 µM
CC#CC(=O)N1CCC2CC21c1nc(-c2ccc(C(=O)Nc3cc(C(F)(F)F)ccn3)cc2)c2c(N)nccn12 (stereo not drawn) [Example 59]	0.097 µM
C=CC(=O)N1C[C@H]2[C@@H]([C@H]1c1nc(-c3ccc(C(=O)Nc4cc(C)ccn4)cc3)c3c(N)nccn13)C2(C)C [Example 60]	0.051 µM
CC#CC(=O)N1C[C@H]2[C@@H]([C@H]1c1nc(-c3ccc(C(=O)Nc4cc(C)ccn4)cc3)c3c(N)nccn13)C2(C)C [Example 61]	0.031 µM
C=CC(=O)N1C[C@H]2[C@@H]([C@H]1c1nc(-c3ccc(C(C)(O)c4ccccc4)cc3)c3c(N)nccn13)C2(C)C (stereo partly drawn) [Example 75]	0.057 µM
CC#CC(=O)N1C[C@H]2[C@@H]([C@H]1c1nc(-c3ccc(C(C)(O)c4ccccc4)cc3)c3c(N)nccn13)C2(C)C (stereo partly drawn) [Example 76]	0.046 µM
C=CC(=O)N1C(c2nc(-c3ccc(C(C)(O)c4ccccc4)cc3)c3c(N)nccn23)CC2CC21 (stereo not drawn) [Example 81]	0.178 µM
CC#CC(=O)N1C(c2nc(-c3ccc(C(C)(O)c4ccccc4)cc3)c3c(N)nccn23)CC2CC21 (stereo not drawn) [Example 82]	0.382 µM
C=CC(=O)N1C2C[C@@H](C1c1nc(-c3ccc(C(C)(O)c4ccccc4)cc3)c3c(N)nccn13)N(C(C)=O)C2 (stereo partly drawn) [Example 90]	0.079 µM
C=CC(=O)N1C(c2nc(-c3ccc(Oc4ccccc4)cc3)c3c(N)nccn23)CC2CC21 (stereo not drawn) [Example 100]	0.067 µM
C=CC(=O)N1CCC2CC21c1nc(-c2ccc(Oc3ccccc3)cc2)c2c(N)nccn12 (stereo not drawn) [Example 102]	0.175 µM
CC#CC(=O)N1CCC2CC21c1nc(-c2ccc(Oc3ccccc3)cc2)c2c(N)nccn12 (stereo not drawn) [Example 103]	0.271 µM
CN(C/C=C/C(=O)N1CC2(CC2)C[C@H]1c1nc(-c2ccc(C(=O)Nc3ccccn3)cc2)c2c(N)nccn12)C1CC1 [Example 114, (S,E)-4-(8-amino-3-(5-(4-(cyclopropyl(methyl)amino)-2-butenoyl)-5-azaspiro[2.4]heptan-6-yl)imidazo[1,5-a]pyrazin-1-yl)-N-(pyridin-2-yl)benzamide]	0.081 µM
CC(C)/C=C(/C#N)C(=O)N1CC2(CC2)C[C@H]1c1nc(-c2ccc(C(=O)Nc3ccccn3)cc2)c2c(N)nccn12 [Example 116, (S,Z)-4-(8-amino-3-(5-(2-cyano-4-methyl-2-pentenoyl)-5-azaspiro [2.4]heptan-6-yl)imidazo[1,5-a]pyrazin-1-yl)-N-(pyridin-2-yl)benzamide]	0.276 µM
C=CC(=O)N1CC2CCC1(c1nc(-c3ccc(C(=O)Nc4ccccn4)cc3)c3c(N)nccn13)C2 (stereo not drawn) [Example 122, 4-(3-(2-acryloyl-2-azabicyclo[2.2.1]heptan-1-yl)-8-aminoimidazo[1,5-a]pyrazin-1-yl)-N-(pyridin-2-yl)benzamide]	0.049 µM

Other lines, results leading:

IC50	Structure (SMILES)
0.197 µM	CC#CC(=O)N1C[C@@H]2C[C@]1(c1nc(-c3ccc(C(=O)Nc4ccccn4)cc3)c3c(N)nccn13)CCO2 [Example 8]
0.4 µM	C=CC(=O)N1CC2C[C@H]1C(c1nc(-c3ccc(C(=O)Nc4ccccn4)cc3)c3c(N)nccn13)N2 (stereo partly drawn) [Example 19]
0.372 µM	C=CC(=O)N1CC2C[C@H]1C(c1nc(-c3ccc(C(=O)Nc4ccccn4)cc3)c3c(N)nccn13)N2C(C)=O (stereo partly drawn) [Example 20]
0.736 µM	CC#CC(=O)N1CCC2(CC2c2nc(-c3ccc(C(=O)Nc4ccccn4)cc3)c3c(N)nccn23)C1 (stereo not drawn) [Example 31]
0.066 µM	C=CC(=O)N1CC2CCC2(c2nc(-c3ccc(C(=O)Nc4ccccn4)cc3)c3c(N)nccn23)C1 (stereo not drawn) [Example 34]
0.093 µM	C=CC(=O)N1CC2(CCNCC2)CC1c1nc(-c2ccc(C(=O)Nc3ccccn3)cc2)c2c(N)nccn12 (stereo not drawn) [Example 36]
0.068 µM	CC#CC(=O)N1CC2COC[C@]2(c2nc(-c3ccc(C(=O)Nc4ccccn4)cc3)c3c(N)nccn23)C1 (stereo partly drawn) [Example 39]
0.097 µM	CC#CC(=O)N1CC2(CC2)C[C@H]1c1nc(-c2ccc(C(=O)Nc3cc(C(F)(F)F)ccn3)cc2)c2c(N)nccn12 [Example 40, (S)-4-(8-amino-3-(5-(but-2-ynoyl)-5-azaspiro[2.4]heptan-6-yl)imidazo[1,5-a]pyrazin-1-yl 1)-N-(4-(trifluoromethyl)pyridin-2-yl)benzamide]
0.054 µM	CC#CC(=O)N1C(c2nc(-c3ccc(C(=O)Nc4cc(C(F)(F)F)ccn4)cc3)c3c(N)nccn23)CC2CC21 (stereo not drawn) [Example 51]
0.078 µM	C=CC(=O)N1CCC2CC21c1nc(-c2ccc(C(=O)Nc3cc(C(F)(F)F)ccn3)cc2)c2c(N)nccn12 (stereo not drawn) [Example 58]
0.057 µM	CC#CC(=O)N1C2CC[C@@H](C2)C1c1nc(-c2ccc(C(=O)Nc3cc(C)ccn3)cc2)c2c(N)nccn12 (stereo partly drawn) [Example 63]
0.087 µM	C=CC(=O)N1C(c2nc(-c3ccc(C(=O)Nc4cc(C)ccn4)cc3)c3c(N)nccn23)CC2CC21 (stereo not drawn) [Example 64]
0.058 µM	CC#CC(=O)N1C(c2nc(-c3ccc(C(=O)Nc4cc(C)ccn4)cc3)c3c(N)nccn23)CC2CC21 (stereo not drawn) [Example 65]
0.097 µM	C=CC(=O)N1C2CN[C@@H](C2)C1c1nc(-c2ccc(C(=O)Nc3cc(Cl)ccn3)cc2)c2c(N)nccn12 (stereo partly drawn) [Example 72]
0.0184 µM	CC#CC(=O)N1CC2CCCC2C1c1nc(-c2ccc(C(C)(O)c3ccccc3)cc2)c2c(N)nccn12 (stereo not drawn) [Example 78]
0.046 µM	CC#CC(=O)N1CCC2CC21c1nc(-c2ccc(C(C)(O)c3ccccc3)cc2)c2c(N)nccn12 (stereo not drawn) [Example 83]
0.051 µM	C=CC(=O)N1C2C[C@@H](C1c1nc(-c3ccc(C(C)(O)c4ccccc4)cc3)c3c(N)nccn13)N(C)C2 (stereo partly drawn) [Example 88]
0.077 µM	CC#CC(=O)N1C(c2nc(-c3ccc(Oc4ccccc4)cc3)c3c(N)nccn23)CC2CC21 (stereo not drawn) [Example 101]
0.104 µM	CC(C)/C=C(/C#N)C(=O)N1CC2CCCC2[C@H]1c1nc(-c2ccc(C(=O)Nc3ccccn3)cc2)c2c(N)nccn12 (stereo partly drawn) [Example 117, 4-(8-amino-3-((1S)-2-((Z)-2-cyano-4-methyl-2-pentenoyl)octahydrocyclopenta [c]pyrrol-1-yl)imidazo[1,5-a]pyrazin-1-yl)-N-(pyridin-2-yl)benzamide]
0.043 µM	CC#CC(=O)N1CC2CCC1(c1nc(-c3ccc(C(=O)Nc4ccccn4)cc3)c3c(N)nccn13)CC2 [Example 121, 4-(8-amino-3-(2-(but-2-ynoyl)-2-azabicyclo[2.2.2]octan-1-yl)imidazo[1,5-a]pyrazin-1-yl)-N-(pyridin-2-yl)benzamide]
0.072 µM	CC#CC(=O)N1CC2CCC1(c1nc(-c3ccc(C(=O)Nc4ccccn4)cc3)c3c(N)nccn13)C2 (stereo not drawn) [Example 123, 4-(8-amino-3-(2-(but-2-ynoyl)-2-azabicyclo[2.2.1]heptan-1-yl)imidazo[1,5-a]pyrazin-1-yl)-N-(pyridin-2-yl)benzamide]
